Assay results taken from patent publication US8518958B2, “Pyrido [2,3-D] pyrimidines and their use as kinase inhibitors” (Forma Therapeutics, Inc., priority 2006, dated 2013).

How the values were obtained:
HT-29 tumor cells = assay: Anti-proliferative activity, SRB assay; format: cell-based, human; details: Homo sapiens, HT-29, 72 h, 72 hours exposure, read-out: CELLULAR IC50 HT-29
How it was run: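 IC50 derived from % inhibition relative to DMSO controls, measured by sulforhodamine B binding (OD570) after TCA fixation. Cells (3,000-15,000 per well) were seeded a day ahead, then treated with graded compound concentrations for 72 hours.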

[1] = biological target: C-Raf Raf-1 (truncated), active (Homo sapiens, UniProt P04049, Y340D/Y341D); assay: C-Raf kinase inhibition (MAPH assay / IMAP assay); details: read-out: Biochemical IC50 C-Raf
C-Raf Raf-1 (truncated), active, sequence (P04049 306-648 Y340D/Y341D): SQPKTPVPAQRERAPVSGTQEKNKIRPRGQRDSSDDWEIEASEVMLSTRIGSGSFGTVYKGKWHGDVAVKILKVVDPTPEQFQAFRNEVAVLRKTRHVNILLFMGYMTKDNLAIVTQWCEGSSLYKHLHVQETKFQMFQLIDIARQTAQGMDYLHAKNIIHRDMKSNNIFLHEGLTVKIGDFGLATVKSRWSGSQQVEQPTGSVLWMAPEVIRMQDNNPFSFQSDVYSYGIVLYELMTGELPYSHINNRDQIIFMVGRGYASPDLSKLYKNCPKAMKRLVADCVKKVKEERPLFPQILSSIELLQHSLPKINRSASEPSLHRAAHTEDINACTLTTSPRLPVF
Source text: We characterized the in vitro inhibitory activity against protein kinases of compounds of the present invention by determining their IC50 values (see Table 2).
Kinase: C-Raf Raf-1 (truncated), active (Upstate; cat. no. 14-352)
Reaction Temperature: room temperature
Assay Plate: 96 well U bottom plate (Greiner, 650161)
MultiScreen-PH Plate: 96 well MAPH Filter Plates (Millipore, MAPHNOB50)
Filter Washing Solution: 0.75% H3PO4
Scintillation Liquid: Supermix Liquid Scintillator (PerkinElmer, 1200-439)
Negative Control (C−): 100 mM EDTA, no inhibitor
Positive Control (C+): no inhibitor
Reaction Buffer (Final Concentration):
Final Assay Concentrations:
Kinase: Use kinase conc. yielding 10% ATP turnover as determined in titration experiment.
Adenosine 5′-[γ-^33P]triphosphate: 12.5 μCi/ml (Amersham Biosciences, BF1000)
Substrate: Myelin Basic Protein 57.8 μM (Invitrogen, 13228-010)
Pipetting Sequence: • 1) Add 10 μl 4-fold concentrated substrate+4-fold concentrated ATP in 3-fold concentrated reaction buffer to each well of assay plate • 2) Add 10 μl […] concentrated inhibitor in 4% DMSO in H2O to each well except to C− and C+ wells (starting point: final inhibitor concentration 10 μM; IC50 determination based on dilution series) • 3) Add 10 μl 4% DMSO in H2O to C− and C+ wells • 4) Add 10 μl 500 mM EDTA in H2O to C− wells • 5) Add 10 μl 50 μCi/ml adenosine 5′-[γ-^33P]triphosphate in H2O to each well • 6) Add 10 μl […] concentrated kinase in Reaction Buffer to each well • 7) Incubate 1 hr at room temperature • 8) Add 10 μl 50 mM EDTA in H2O to each well except to C− wells • 9) Prepare MAPH plates by adding 200 μl 0.75% H3PO4 to each well • 10) Exhaust 0.75% H3PO4 using Millipore vacuum station • 11) Add 60 μl 0.75% H3PO4 to each well of MAPH filter plate • 12) Transfer 30 μl sample per well from assay plate to corresponding well of MAPH filter plate • 13) Incubate 30 min at room temperature • 14) Wash each well of MAPH filter plates 3× with 200 μl 0.75% H3PO4 using Millipore vacuum station • 15) Add 20 μl scintillation liquid to each well of MAPH filter plate • 16) Seal MAPH filter plate • 17) Store MAPH filter plate 30 min in darkness • 18) Quantify radioactivity using scintillation counter (MicroBeta, Perkin-Elmer)
Reaction Volume: 8.0108 μl
IMAP Incubation Time: 60 min
Assay Plate: 384 well U bottom, PP, black, low volume (Corning, 3676)
Compound Plate: 384 well U bottom, PS (Falcon, 3995)
IMAP Binding Buffer A: Molecular Devices, R7282
IMAP Binding Buffer B: Molecular Devices, R7283
IMAP Binding Reagent: Molecular Devices, R7207
Negative Control (C−): no kinase, no inhibitor
Reation buffer: 20 mM Hepes, pH 7.5 • 1 mM DTT • 10 mM MnCl2 • 0.01% Brij35
Kinase: Kinase conc. yielding 50% substrate turnover as determined in titration experiment • c-Raf (Upstate 14-352)
Substrate: 5F1-SGQLIDSMANSFV-NH2 400 nM (jpt Peptide Technologies GmbH, Berlin, Germany)
IMAP Binding Solution: 75% IMAP Binding Buffer A • 25% IMAP Binding Buffer B • IMAP Binding Reagent 1:800
Pipetting Sequence: • 1) Add 6 μl 1.33-fold concentrated substrate+1.33-fold concentrated ATP in 1-fold concentrated reaction buffer to each well of assay plate • 2) Add 10.8 nl 740-fold concentrated inhibitor in 100% DMSO to each well except to C− and C+ wells using pintool (CyBio, Jena, Germany) (starting point: final inhibitor concentration 10 μM; IC50 determination based on dilution series) • 3) Add 10.8 nl 100% DMSO to C− and C+ wells using pintool • 4) Add 2 μl reaction buffer to C− wells • 5) Add 2 μl 4-fold concentrated kinase in reaction buffer to each well except C− wells • 6) Incubate according to reaction time at room temperature • 7) Add 15 μl IMAP binding solution to each well • 8) Incubate according to IMAP incubation time at room temperature • 9) Measure fluorescence polarization (Analyst GT, Molecular Devices)

B-Raf delta1-415 = B-Raf delta1-415 (Homo sapiens, UniProt P15056); assay: B-Raf kinase inhibition (MAPH filter plate, 33P-ATP, MEK1 substrate); details: read-out: Biochemical IC50 B-Raf
B-Raf delta1-415, sequence (P15056 416-766): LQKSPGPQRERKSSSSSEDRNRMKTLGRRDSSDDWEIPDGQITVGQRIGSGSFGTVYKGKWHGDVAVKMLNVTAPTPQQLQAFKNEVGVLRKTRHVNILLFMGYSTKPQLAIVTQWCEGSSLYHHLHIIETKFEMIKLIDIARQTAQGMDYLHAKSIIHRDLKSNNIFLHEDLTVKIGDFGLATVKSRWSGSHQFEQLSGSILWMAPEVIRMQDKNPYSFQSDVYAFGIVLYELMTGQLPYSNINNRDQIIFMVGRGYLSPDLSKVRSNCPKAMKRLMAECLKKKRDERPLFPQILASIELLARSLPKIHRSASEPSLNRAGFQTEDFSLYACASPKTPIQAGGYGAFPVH
How it was run: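 IC50 values come from dilution series (top 10 μM) measured by scintillation counting of 33P-labelled MEK1 retained on H3PO4-washed filters. Reactions ran 1 h at room temperature in pH 7.0 Mops buffer with MgCl2, MnCl2 and DTT, using 12.5 μCi/ml [γ-33P]ATP and B-Raf delta1-415 titrated to 50% turnover.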

IC50 (HT-29 tumor cells)	IC50 [1]	IC50 (B-Raf delta1-415)	Structure (SMILES)
< 10000 nM	< 1000 nM	< 1000 nM	COn1c(=O)c(-c2ccc(Cl)c(Cl)c2)cc2cnc(Nc3ccc(N4CCN(C)CC4)cc3)nc21 [Compound 18, 6-(3,4-Dichlorophenyl)-8-methoxy-2-(4-(4-methylpiperazino)-phenylamino)-pyrido[2,3-d]pyrimidin-7-one]
< 1000 nM	< 100 nM	< 500 nM	COCCOn1c(=O)c(-c2ccccc2Cl)cc2cnc(Nc3ccccc3)nc21 [Compound 20]
< 10000 nM	< 100 nM	< 500 nM	COn1c(=O)c(-c2ccccc2Cl)cc2cnc(Nc3ccccc3)nc21 [Compound 22, 6-(2-Chlorophenyl)-8-methoxy-2-phenylamino-pyrido[2,3-d]pyrimidin-7-one]
< 10000 nM	< 100 nM	< 500 nM	COn1c(=O)c(-c2cc(N)ccc2Cl)cc2cnc(Nc3ccccc3)nc21 [Compound 23, 6-(5-Amino-2-chlorophenyl)-8-methoxy-2-phenylamino-pyrido[2,3-d]pyrimidin-7-one]
< 1000 nM	< 100 nM	< 100 nM	COn1c(=O)c(-c2c(Cl)cccc2Cl)cc2cnc(Nc3ccc(OCCN(C)C)cc3)nc21 [Compound 24, 6-(2,6-Dichlorophenyl)-8-methoxy-2-(4-(2-dimethylaminoethoxy)-phenylamino)-pyrido[2,3-d]pyrimidin-7-one]
< 10000 nM	< 100 nM	> 1000 nM	COn1c(=O)c(-c2c(Cl)cccc2Cl)cc2cnc(Nc3cc(CO)ccc3F)nc21 [Compound 27, 6-(2,6-Dichlorophenyl)-2-(2-fluoro-5-(hydroxymethyl)phenylamino)-8-methoxy-pyrido[2,3-d]pyrimidin-7-one]
< 1000 nM	< 100 nM	> 10000 nM	COn1c(=O)c(-c2cccc(NC(=O)c3ccccc3)c2Cl)cc2cnc(Nc3ccccc3)nc21 [Compound 28]
< 10000 nM	< 100 nM	> 1000 nM	COn1c(=O)c(-c2cc(NC(=O)c3cccnc3)ccc2Cl)cc2cnc(Nc3ccccc3)nc21 [Compound 31]
< 10000 nM	< 100 nM	< 500 nM	COCCNc1ncc2cc(-c3cc(NC(=O)c4ccccc4)ccc3Cl)c(=O)n(OC)c2n1 [Compound 33]
< 1000 nM	< 500 nM	> 1000 nM	COn1c(=O)c(-c2cc(NC(=O)c3cccc(C(F)(F)F)c3)ccc2Cl)cc2cnc(Nc3ccccc3)nc21 [Compound 35]
< 10000 nM	< 100 nM	> 1000 nM	COn1c(=O)c(-c2cc(NC(=O)c3ccc(Cl)cc3)ccc2Cl)cc2cnc(Nc3ccccc3)nc21 [Compound 37]
< 1000 nM	< 100 nM	< 100 nM	COn1c(=O)c(-c2c(C)cccc2C)cc2cnc(Nc3ccc(N4CCN(C)CC4)cc3)nc21 [Compound 38, 6-(2,6-Dimethylphenyl)-8-methoxy-2-(4-(4-methylpiperazino)-phenylamino)-pyrido[2,3-d]pyrimidin-7-one]

Second part, the compound before the results:

Structure (SMILES)	IC50 (HT-29 tumor cells)	IC50 [1]	IC50 (B-Raf delta1-415)
COn1c(=O)c(-c2c(Cl)cccc2Cl)cc2cnc(Nc3ccc(CCO)cc3)nc21 [Compound 17, 6-(2,6-Dichlorophenyl)-8-methoxy-2-(4-(2-hydroxyethyl)-phenylamino)-pyrido[2,3-d]pyrimidin-7-one]	< 1000 nM	< 100 nM	< 100 nM
COn1c(=O)c(-c2ccc(Cl)cc2Cl)cc2cnc(Nc3ccc(N4CCN(C)CC4)cc3)nc21 [Compound 19, 6-(2,4-Dichlorophenyl)-8-methoxy-2-(4-(4-methylpiperazino)-phenylamino)-pyrido[2,3-d]pyrimidin-7-one]	< 1000 nM	< 100 nM	< 500 nM
COn1c(=O)c(-c2c(Cl)cccc2Cl)cc2cnc(Nc3cccc(CN4CCCC4)c3)nc21 [Compound 21, 6-(2,6-Dichlorophenyl)-8-methoxy-2-(3-(pyrrolidin-1-yl)methylphenylamino)-pyrido[2,3-d]pyrimidin-7-one]	< 1000 nM	< 100 nM	< 500 nM
COn1c(=O)c(-c2c(F)cccc2Cl)cc2cnc(Nc3ccc(N4CCN(C)CC4)cc3)nc21 [Compound 25, 6-(2-Chloro-6-fluorophenyl)-8-methoxy-2-(4-(4-methylpiperazino)-phenylamino)-pyrido[2,3-d]pyrimidin-7-one]	< 1000 nM	< 100 nM	< 100 nM
COn1c(=O)c(-c2cc(NC(=O)c3ccccc3)ccc2Cl)cc2cnc(Nc3ccccc3)nc21 [Compound 29]	< 10000 nM	< 100 nM	< 500 nM
COn1c(=O)c(-c2c(F)cccc2Cl)cc2cnc(Nc3cccc(S(N)(=O)=O)c3)nc21 [Compound 30, 6-(2-Chloro-6-fluorophenyl)-8-methoxy-2-(3-sulfamoylphenylamino)-pyrido[2,3-d]pyrimidin-7-one]	< 1000 nM	< 100 nM	< 100 nM
COn1c(=O)c(-c2cc(NC(=O)C(C)C)ccc2Cl)cc2cnc(Nc3ccccc3)nc21 [Compound 32]	< 10000 nM	< 100 nM	> 1000 nM
NCCCCOn1c(=O)c(-c2c(Cl)cccc2Cl)cc2cnc(Nc3ccccc3)nc21 [Compound 34, 8-(4-Aminobutoxy)-6-(2,6-dichlorophenyl)-2-phenylamino-pyrido[2,3-d]pyrimidin-7-one]	< 1000 nM	< 100 nM	< 1000 nM
COn1c(=O)c(-c2cc(NC(=O)c3cccc(Cl)c3)ccc2Cl)cc2cnc(Nc3ccccc3)nc21 [Compound 36]	< 10000 nM	< 100 nM	> 1000 nM
COc1cccc(Cl)c1-c1cc2cnc(Nc3ccc(N4CCN(C)CC4)cc3)nc2n(OC)c1=O [Compound 39, 6-(2-Chloro-6-methoxyphenyl)-8-methoxy-2-(4-(4-methylpiperazino)-phenylamino)-pyrido[2,3-d]pyrimidin-7-one]	< 1000 nM	< 100 nM	< 500 nM
NCCCCOn1c(=O)c(-c2c(Cl)cccc2Cl)cc2cnc(Nc3cccc(S(N)(=O)=O)c3)nc21 [Compound 40, 8-(4-Aminobutoxy)-6-(2,6-dichlorophenyl)-2-(3-sulfamoylphenylamino)-pyrido[2,3-d]pyrimidin-7-one]	> 10000 nM	< 100 nM	< 100 nM
